# Read-outs that look alike come from different tables or passages of the source.
# Assays:
# LDL = test: Logistic regression models of attaining LDL goal: odds ratios for concurrent or prior drug doses; format: in vivo, patients; conditions: for OR: per dose increment
# Method: G. Covariates for the multivariate model—The following list includes the predictors one or more of which may be tested in the multivariate models. • 1. AGE: (expressed in units of 10 years) at time that the new statin prescription was released • 2. GENDER, E. G., MALE: 1=yes, 0=no • 3. BMI (kg/M^2): last value before release date • 4. HBA1C (hemoglobin Alc): last value before release date • 5. PLDL: preceding LDL level expressed in e.g. 10 mg/dl units • 6. Statins • a. PLOVA: prior daily dose of lovastatin expressed in e.g. 10 mg units • b. […] For additional drugs: • a. AMIODOSE: amiodarone dose in mg/day • b. CARBDOSE: carbemazepine dose in mg/day • c. PIOGDOSE: pioglitazone dose expressed as number of 15 mg doses per day • d. […] METFDOSE: metformin dose expressed as number of 1000 mg doses per day • f. PHENDOSE: phenyloin dose in mg/day • g. RISPDOSE: risperidone dose in mg/day • h. ROSIDOSE: rosiglitazone dose in mg/day • i.
# Body mass index (BMI) was chosen as a covariate of statin response because obese patients tend to consume a diet high in cholesterol. It was hypothesized that they would respond less well to statins because their hypercholesterolemia was more likely to be mediated by dietary indiscretion than excessive LDL synthesis. […] Metformin and the thiazolidinediones were chosen because they reduce LDL levels in diabetic patients through mechanisms that may or may not be affected by concurrent statin treatment. The remaining non-statin drugs were chosen because they are commonly used drugs that potentiate the effect of statins. They were selected by reviewing the official on-line VA pharmaceutical reference (Micromedex®) for major interactions mediated by impaired statin metabolism. […] The daily dose of the non-statin drug was calculated by the method described in Section B.
# H. Assembling the predictor file—The patient identifier was used to link the new statin prescription type and dose, the preceding LDL above goal, and the type and dose of the previous statin (if any) with the patient's most recent HbA1c, most recent BMI, and the daily doses of 9 drugs with major statin interactions that were active at the time the new prescription was released.
# The dependent variable was attainment of goal (LDL <100 mg/dl). […] Step selections were based upon the maximal likelihood method with α<0.15 to enter and ≧0.15 to remove.
# [1] = cited from earlier work
# [2] = odds of goal LDL <100 mg/dl, Lovastatin 20 mg [A] model (includes HbA1c; n = 595)
# [3] = odds of goal, Lovastatin 20 mg [B] model (excludes HbA1c; n = 733)
# [4] = odds of goal, Lovastatin 40 mg model (n = 764)
# [5] = odds of goal, Simvastatin 10 mg [A] model (no previous treatment; n = 172)
# [6] = odds of goal, Simvastatin 10 mg [C] model (excludes BMI; n = 219)
# [7] = odds of goal, Simvastatin 40 mg model (n = 698)
Compound,Increased risk of toxicity or reduced statin effectiveness ([1]; with Simva),Severity of the interaction ([1]; with Simva),Increased risk of toxicity or reduced statin effectiveness ([1]; with Atorva),Severity of the interaction ([1]; with Atorva),Increased risk of toxicity or reduced statin effectiveness ([1]; with Lova),Severity of the interaction ([1]; with Lova),Severity of the interaction ([1]; with Prava),Severity of the interaction ([1]; with Fluva),further results
"COc1ccc([C@@H]2Sc3ccccc3N(CCN(C)C)C(=O)[C@@H]2OC(C)=O)cc1 [Diltiazem, diltiazem]",,,,,,,,,"Increase of odds of reaching goal (LDL; for every 120 mg per day diltiazem, lovastatin 20 mg model): 70%; OR (LDL; [2]): 1.44; OR (LDL; [3]): 1.69; OR (LDL; [4]): 1.35; OR (LDL; [5]): 1.78; OR (LDL; [6]): 1.76; OR (LDL; [7]): 1.70"
Cc1nc2n(c(=O)c1CCN1CCC(c3noc4cc(F)ccc34)CC1)CCCC2 [Risperidone],(+),3,,,,,,,
CCc1nn(CCCN2CCN(c3cccc(Cl)c3)CC2)c(=O)n1CCOc1ccccc1 [Nefazodone],(+),3,(+),3,(+),3,2,,Increased risk of toxicity or reduced statin effectiveness ([1]; with Prava): (+)
Pectin,,2,,2,,2,2,2,Severity of the interaction ([1]; with Rosuva): 2
Cc1ccc(C)c(OCCCC(C)(C)C(=O)O)c1 [Gemfibrozil],(+),3,(+),3,(+),3,3,3,Increased risk of toxicity or reduced statin effectiveness ([1]; with Fluva): (+); Increased risk of toxicity or reduced statin effectiveness ([1]; with Prava): (+); Increased risk of toxicity or reduced statin effectiveness ([1]; with Rosuva): (+); Severity of the interaction ([1]; with Rosuva): 3
CCN(CC)CCS(=O)(=O)[C@@H]1CCN2C(=O)c3coc(n3)CC(=O)C[C@H](O)/C=C(C)/C=C/CNC(=O)/C=C/[C@@H](C)[C@@H](C(C)C)OC(=O)[C@@H]12 [Dalfopristin],(+),3,(+),3,(+),3,3,3,Increased risk of toxicity or reduced statin effectiveness ([1]; with Fluva): (+); Increased risk of toxicity or reduced statin effectiveness ([1]; with Prava): (+)
O=C1NC(c2ccccc2)(c2ccccc2)C(=O)N1COP(=O)(O)O [Fosphenytoin],,2,,2,,,,,
COC(=O)[C@H](c1ccccc1Cl)N1CCc2sccc2C1 [Clopidogrel],,,,,,,,2,Increased risk of toxicity or reduced statin effectiveness ([1]; with Fluva): (+)
CC(=O)N1CCN(c2ccc(OCC3COC(Cn4ccnc4)(c4ccc(Cl)cc4Cl)O3)cc2)CC1 (stereo not shown) [Ketoconazole],(+),3,(+),3,(+),3,,,
OC(Cn1cncn1)(Cn1cncn1)c1ccc(F)cc1F [Fluconazole],(+),,(+),,(+),,,,Increased risk of toxicity or reduced statin effectiveness ([1]; with Fluva): (+); Increased risk of toxicity or reduced statin effectiveness ([1]; with Rosuva): (+)
CC(C)CN(C[C@@H](OP(=O)(O)O)[C@H](Cc1ccccc1)NC(=O)O[C@H]1CCOC1)S(=O)(=O)c1ccc(N)cc1 [Fosamprenavir],(+),3,(+),3,(+),3,,,
COc1ccc2nc([S@@+]([O-])Cc3ncc(C)c(OC)c3C)[nH]c2c1 [Esomeprazole],,,(+),3,,,,,
"CN(C)C(=N)N=C(N)N [Metformin, metformin]",,,,,,,,,"Odds ratio for concurrent treatment (LDL; for every 1,000 mg daily, 2 models): 1.3; OR (LDL; [2]): 1.30; OR (LDL; [3]): 1.26; OR (LDL; [4]): 1.22; OR (LDL; [5]): 1.84; OR (LDL; [6]): 1.98; OR (LDL; [7]): 1.31; Increase of odds of reaching goal (LDL; patient taking metformin, simvastatin 40 mg model): 30%"
CCCCc1oc2ccccc2c1C(=O)c1cc(I)c(OCCN(CC)CC)c(I)c1 [Amiodarone],,3,,,,3,,,
CC(C)c1nc(CN(C)C(=O)N[C@H](C(=O)N[C@@H](Cc2ccccc2)C[C@H](O)[C@H](Cc2ccccc2)NC(=O)OCc2cncs2)C(C)C)cs1 [Rotinavir],(+),3,(+),2,(+),3,,,
C#C[C@]1(O)CC[C@H]2[C@@H]3CCC4=Cc5oncc5C[C@]4(C)[C@H]3CC[C@@]21C [Danazol],(+),,,,,,,,
O=C(O)c1cccnc1 [Niacin],(+),3,(+),3,(+),3,2,2,Increased risk of toxicity or reduced statin effectiveness ([1]; with Fluva): (+); Increased risk of toxicity or reduced statin effectiveness ([1]; with Prava): (+); Increased risk of toxicity or reduced statin effectiveness ([1]; with Rosuva): (+); Severity of the interaction ([1]; with Rosuva): 3
"CCc1ccc(CCOc2ccc(CC3SC(=O)NC3=O)cc2)nc1 (stereo not shown) [Pioglitazone, pioglitazone]",,,,,,,,,OR (LDL; [3]): 2.06
Cholestyramine,,,,,,,2,1,
